Assay results published in US4442031A, “Immunopotentiating peptides” (Hoffmann-La Roche Inc., priority 1983, dated 1984).
Where no end group is shown, it is not given here.

Experiments:
[1] = system: Candida albicans ATCC 10231; assay: Protective activity against Candida albicans infection in 5-FU immunosuppressed mice; type: in vivo; conditions: for Survivors Day 8 / Survivors Day 15: ddY mice; for Survivors at Day 8 after infection: Table 6, i.p., ten times with 5-FU, control 1/7
Protocol: In a series of examples, the compounds of formula I were tested for protective activity against opportunistic infections in immunosuppressed mice. Female ddY mice (6 weeks old) weighing about 26 g were pretreated daily for ten days with 5-fluorouracil (5-FU) (25 mg/kg/day, i.p.) and with thymosin α1 or with compounds of formula I (i.p.) at varying dosages. The mice were then infected with Candida albicans ATCC 10231 (1×10^5 cells or more) at 24 hour after the last treatment. One control group was administered 5-FU and saline solution and a second control group received neither 5-FU nor compound of formula I prior to infection with Candida albicans. The number of animals surviving eight days after infection with Candida albicans and 15 days after infection with Candida albicans is presented in the table below.
Normal mice (female ddY mice, 6 weeks old) were highly tolerant to infection with Candida albicans ATCC 10231 at relatively low dose (1-2×10^5 cells, iv.). However, when pretreated daily for ten times with 5-FU (25 mg/kg/day, ip.), the mice were susceptible to infection as shown in Table 6. […] Compound A was also shown to be active against infection with Pseudomonas aeruginosa 5E81-1 and Listeria monocytogenes EGD in the immunosuppressed mice (see Tables 7 and 8).

[2] = system: delayed-type hypersensitivity (DTH); assay: Restoration of delayed-type hypersensitivity (DTH) decreased by 5-FU in BDF1 mice; type: in vivo; conditions: i.p.; for DTH response %: % of control
Protocol: A poor prognosis is often observed in cancer patients with impaired immune response. Impaired immune response can be caused by the cancer itself, by chemotherapeutic agents, or by radiotherapy. Thus, therapeutic agents which restore impaired immune response in cancer patients are expected to play an important role in combination therapy. The restoration activity of the compounds of the invention on impaired cell-mediated immunity was determined by measuring the enhancement of delayed-type hypersensitivity (DTH), which was decreased to a great extent in mice treated with 5-fluorouracil (5-FU).
Female BDF1 mice (20-22 g, 11-12 weeks old) received (i.p. or p.o.) the compound to be tested on consecutive days one day before, concurrently with and 1 and 2 days after the 5-FU treatment. For DTH measurement, 10^8 chicken red blood cells (CRBC) were injected i.p. (or s.c. into the left hind footpad) and challenged s.c. into the right hind footpad at 3 and 7 days after the 5-FU treatment, respectively. Restoration activity was calculated by the following formula from the DTH response observed in the control group, 5-FU treated group treatment and the Test group treated both with 5-FU and the compound of the invention. Restoration activity was calculated by the formula: [formula]

[3] = Example 8, 4.0 μg/kg i.p. daily for ten days with 5-FU
[4] = Example 8, 40.0 μg/kg i.p. daily for ten days with 5-FU
[5] = Table 3, first experiment, 5-FU plus 0.05 μg/kg/day
[6] = Table 3, first experiment, 5-FU plus 0.5 μg/kg/day
[7] = Table 3, first experiment, 5-FU plus 5.0 μg/kg/day
[8] = Table 3, second experiment, 5-FU plus 0.5 μg/kg/day
[9] = Table 3, second experiment, 5-FU plus 5.0 μg/kg/day
[10] = Table 3, second experiment, 5-FU plus 50.0 μg/kg/day

## KSEVVE [Compound B, L-Lysyl-L-seryl-L-glutamyl-L-valyl-L-valyl-L-glutamic acid]
[1]; [3]
  Survivors Day 8: 6/7
  Survivors Day 15: 3/7
[1]; [4]
  Survivors Day 8: 3/7
  Survivors Day 15: 3/7
[1]; Example 9, 4.0 μg/kg i.p. daily for ten days with 5-FU
  Survivors Day 8: 5/7
[1]; Example 9, 40.0 μg/kg i.p. daily for ten days with 5-FU
  Survivors Day 8: 5/7
[1]; 4 μg/kg/day
  Survivors at Day 8 after infection: 5/7
[1]; 40 μg/kg/day
  Survivors at Day 8 after infection: 5/7
[2]; Table 3, first experiment (control 8.5, 5-FU alone 4.8), 5-FU plus 0.05 μg/kg/day
  DTH response av. ± S.E. (0.1 mm): 7.2 ± 0.8 0.1 mm
[2]; Table 3, first experiment (control 8.5, 5-FU alone 4.8), 5-FU plus 0.5 μg/kg/day
  DTH response av. ± S.E. (0.1 mm): 6.5 ± 0.7 0.1 mm
[2]; Table 3, first experiment (control 8.5, 5-FU alone 4.8), 5-FU plus 5.0 μg/kg/day
  DTH response av. ± S.E. (0.1 mm): 8.5 ± 1.0 0.1 mm
[2]; [5]
  Restoration Activity(%): 65.0%
  DTH response %: 84.7%
[2]; [6]
  Restoration Activity(%): 48.0%
  DTH response %: 77.2%
[2]; [7]
  Restoration Activity(%): 100%
  DTH response %: 100%
[2]; Table 3, second experiment (control 15.1, 5-FU alone 8.1), 5-FU plus 0.5 μg/kg/day
  DTH response av. ± S.E. (0.1 mm): 8.5 ± 0.9 0.1 mm
[2]; Table 3, second experiment (control 15.1, 5-FU alone 8.1), 5-FU plus 5.0 μg/kg/day
  DTH response av. ± S.E. (0.1 mm): 8.3 ± 1.8 0.1 mm
[2]; Table 3, second experiment (control 15.1, 5-FU alone 8.1), 5-FU plus 50.0 μg/kg/day
  DTH response av. ± S.E. (0.1 mm): 9.4 ± 0.8 0.1 mm
[2]; [8]
  Restoration Activity(%): 6.5%
  DTH response %: 56.4%
[2]; [9]
  Restoration Activity(%): 3.1%
  DTH response %: 54.8%
[2]; [10]
  Restoration Activity(%): 18.3%
  DTH response %: 61.9%
[2]; Tables 2 and 3
  DTH restoration activity (in words): active
